# Assay results published in ChEMBL document CHEMBL1136922, “Antitumor agents. 266. Design, synthesis, and biological evaluation of novel 2-(furan-2-yl)naphthalen-1-ol derivatives as potent and selective antibreast cancer agents” (2009).
# Assays:
# Assay type in all cases: functional
# [1] = tested on: MCF7; experiment: Cytotoxicity against human MCF7 cells expressing estrogen receptor after 72 hrs by SRB assay; details: MCF7, 72 h, read-out: ED50 (the source's name)
# [2] = tested on: SK-BR-3; experiment: Cytotoxicity against estrogen receptor deficient human SKBR3 cells overexpressing human epidermal growth factor receptor 2 after 72 hrs by SRB assay; details: SK-BR-3, 72 h, read-out: ED50 (the source's name)
# [3] = Cytotoxicity against vincristine-resistant human KBVIN cells after 72 hrs by SRB assay; details: read-out: ED50 (the source's name)
# [4] = tested on: MDA-MB-231; experiment: Cytotoxicity against estrogen receptor deficient human MDA-MB-231 cells after 72 hrs by SRB assay; details: MDA-MB-231, 72 h, read-out: ED50 (the source's name)
# [5] = tested on: KB; experiment: Cytotoxicity against human KB cells after 72 hrs by SRB assay; details: read-out: ED50 (the source's name)
# [6] = tested on: A549; experiment: Cytotoxicity against human A549 cells after 72 hrs by SRB assay; details: A549, 72 h, read-out: ED50 (the source's name)
# [7] = tested on: DU-145; experiment: Cytotoxicity against human DU145 cells after 72 hrs by SRB assay; details: DU-145, 72 h, read-out: ED50 (the source's name)
# [8] = tested on: ZR-75-1; experiment: Cytotoxicity against human ZR-75-1 cells expressing estrogen receptor and HER2 after 72 hrs by SRB assay; details: ZR-75-1, 72 h, read-out: ED50 (the source's name)
# [9] = tested on: ZR-75-1; experiment: Selectivity ratio of ED50 for human MCF7 cells expressing estrogen receptor to ED50 for human ZR-75-1 cells expressing estrogen receptor and HER2
# [10] = tested on: ZR-75-1; experiment: Selectivity ratio of ED50 for estrogen receptor deficient human SKBR3 cells overexpressing HER2 to ED50 for human ZR-75-1 cells expressing estrogen receptor and HER2
Compound,EC50 [1] [mg/L],EC50 [2] [mg/L],EC50 [3] [mg/L],EC50 [4] [mg/L],EC50 [5] [mg/L],EC50 [6] [mg/L],EC50 [7] [mg/L],EC50 [8] [mg/L],Ratio ED50 [9],Ratio ED50 [10]
CCc1cccc2c(OC)c(-c3occ(C)c3C(=O)O)ccc12,4.3,8.5,,,,,,,,
CC/C(=C(\c1ccccc1)c1ccc(OCCN(C)C)cc1)c1ccccc1 [TAMOXIFEN],5,5,,,,,,,,
CCc1cccc2c(O)c(-c3oc(C)c(C)c3C(=O)O)ccc12,8.5,10.4,,,,,,,,
Cc1coc2c1c(=O)oc1c3ccccc3ccc21,4,1,,,,,,,,
Cc1coc2c1c(=O)oc1cc(OC(C)C)ccc12,12,10.8,,,,,,,,
CCc1cccc2c(OC)c(-c3occ(C)c3C(=O)OC)ccc12,2.5,1.2,1.3,2.3,1.7,1.5,2.2,1.3,,
Cc1cccc2c(OC(=O)c3ccoc3)cccc12,> 20,> 20,,,,,,,,
COc1c(-c2occ(C)c2C(=O)O)ccc2ccccc12,18,16.7,,,,,,,,
CCOc1cccc2c(O)c(-c3occ(C)c3C(=O)O)ccc12,7.5,6,,,,,,,,
CCc1coc(-c2ccc3c(CC)cccc3c2O)c1C(=O)O,5.1,5.4,,,,,,,,
CCc1cccc2c(O)c(-c3occ(C)c3C(=O)O)ccc12,3.3,1,7,> 10,9.1,10.6,8.7,0.3,10,3
Cc1coc(-c2ccc3ccccc3c2O)c1CO,7,9.5,,,,,,,,
CCc1cccc2c1ccc1c3occ(C)c3c(=O)oc21,0.2,0.1,13.2,> 10,13.1,10.6,15.9,0.1,2,
COc1cccc2c(O)c(-c3occ(C)c3C(=O)O)ccc12,> 20,3.5,8.9,> 10,9.7,10.1,8.2,0.6,33,6
CCc1cccc2c(O)c(-c3occ(C)c3CO)ccc12,12,12.8,,,,,,,,
Cc1coc(-c2ccc3ccccc3c2O)c1C(=O)O,6,7,,,,,,,,
COC(=O)c1c(C)coc1-c1ccc2ccccc2c1OC,8.5,6.5,,,,,,,,
C#CCOc1cc(=O)oc2c1ccc1ccccc12,20,16,,,,,,,,
